Experimental data published in US10266544B2, “Aryl substituted aminomethyl spectinomycin analogs as antibacterial agents” (ST. JUDE CHILDREN'S RESEARCH HOSPITAL, INC., priority 2013, dated 2019).
≈ marks a conversion by molar mass, not a printed value. Counter-ions that a name gives are not always drawn. Like-named read-outs stand apart in the source and are kept apart here.

Columns and labels:
Format in all cases: cell-based
[1] = tested on: Proteus mirabilis (ATCC 25933); test: MIC determination, microbroth dilution; conditions: ATCC25933
[2] = tested on: MRSA, Staphylococcus aureus (NRS70); test: MIC determination, microbroth dilution; conditions: read-out: MIC MRSA
Bacillus anthracis = test: microbe, parasite or virus in culture; conditions: read-out: MIC B.a.
[3] = tested on: Staphylococcus aureus (ATCC 29213); test: MIC determination, microbroth dilution
[4] = tested on: Klebsiella pneumoniae (ATCC 33495); test: MIC determination, microbroth dilution; conditions: ATCC33495
[5] = tested on: Bacillus anthracis, Sterne 34F2; test: microbe, parasite or virus in culture; conditions: STERNE34F2, read-out: MIC B.a.
[6] = tested on: M. tuberculosis clinical isolates; test: microbe, parasite or virus in culture; conditions: Mycobacterium tuberculosis
[7] = tested on: acinetobacter baumannii (ATCC 19606); test: MIC determination, microbroth dilution; conditions: ATCC19606
[8] = tested on: Stenotrophomonas maltophilia (ATCC 13637); test: MIC determination, microbroth dilution; conditions: ATCC13637; Stenotrophomonas maltophilia (ATCC 13637); read-out: MIC S.m.
[9] = tested on: Burkholderia cepacia (ATCC 25416); test: MIC determination, microbroth dilution; conditions: Burkholderia cepacia
[10] = tested on: Proteus vulgaris (ATCC 33420); test: MIC determination, microbroth dilution; conditions: ATCC33420
[11] = tested on: Bacillus subtilis (ATCC 23857); test: MIC determination, microbroth dilution; conditions: ATCC23857; Bacillus subtilis (ATCC 23857); read-out: MIC B.s.
[12] = tested on: Streptococcus pyogenes (ATCC 700294); test: MIC determination, microbroth dilution; conditions: ATCC700294; Streptococcus pyogenes (ATCC 700294); read-out: MIC S. py.
[13] = tested on: Enterococcus faecalis (ATCC 33186); test: MIC determination, microbroth dilution
E. coli K12 ΔtolC = test: microbe, parasite or virus in culture; conditions: Escherichia coli, read-out: MIC E.c. Δtolc
[14] = tested on: Pseudomonas aeruginosa (PA01); test: MIC determination, microbroth dilution
[15] = tested on: Escherichia coli (ATCC 700926); test: MIC determination, microbroth dilution; conditions: ATCC700926; Escherichia coli (ATCC 700926); read-out: MIC E.c.
Description: MICs were determined using the microbroth dilution method according to Clinical Laboratory Standards Institute (CLSI; National, C. F. C. L. S., Methods for Dilution Antimicrobial Susceptibility Tests for Bacteria Grow aerobically-Seventh Edition: Approved Standard M7-A7, CLSI, Wayne, Pa., USA, 2008) and were read by visual inspection. Two fold serial dilutions of antibiotic in 100 μL of the appropriate broth media were first prepared in 96-well round bottom microtiter plates (Nalge Nunc International, Rochester, N.Y., USA). An equivalent volume (100 μL) of bacterial broth inocula containing approximately 10^5 bacterial cfu/mL was added to each well to give final concentrations of drug starting at 200 μg/mL and the plates were incubated aerobically at 37° C. M. tuberculosis microtiter plates were incubated for 7 days and all other strains were incubated overnight. After incubations, in all cases the MIC was recorded as the lowest concentration of drug that prevented bacterial growth.

[16] = tested on: Streptococcus pneumoniae (R6); test: MIC determination, microbroth dilution; conditions: Streptococcus pneumoniae (R6); read-out: MIC S. pn.
[17] = tested on: Haemophilus influenza (ATCC 49247); test: microbe, parasite or virus in culture; conditions: ATCC49247; Haemophilus influenza; 4 μg per disc; range of at least two experiments; read-out: Zone of inhibition H.i.
[18] = tested on: Neisseria meningitides (ATCC 13077); test: Disc diffusion assay; conditions: ATCC13077, 4 μg per disc, read-out: Zone of inhibition N.m.
[19] = tested on: Neisseria gonorrhoeae (ATCC 49226); test: Disc diffusion assay; conditions: ATCC49226, 4 μg per disc, read-out: Zone of inhibition N.g.
[20] = tested on: Legionella pneumophila (ATCC 33153); test: microbe, parasite or virus in culture; conditions: ATCC33153, 72 h, read-out: Zone of inhibition L.p.
[21] = Staphylococcus aureus, ATCC29213, read-out: MIC S.a.
[22] = ATCC25416, read-out: MIC B.c., Burkholderia cepacia (ATCC 25416)
[23] = ATCC25416, read-out: MIC B.c., Burkholderia cepacia, Table 6
[24] = ATCC29213, Staphylococcus aureus (ATCC 29213), read-out: MIC S.a.
[25] = ATCC33186, Enterococcus faecalis (ATCC 33186), read-out: MIC E.f.

Row | Structure (SMILES) | MIC [1] [µg/mL] | MIC [4] [µg/mL] | MIC [5] [µg/mL] | MIC ([6]; H37RV, read-out: MIC H37Rv) [µg/mL] | MIC [7] [µg/mL] | MIC [8] [µg/mL] | MIC [9, 22] [µg/mL] | MIC [10] [µg/mL] | MIC [11] [µg/mL] | MIC [12] [µg/mL] | MIC (E. coli K12 ΔtolC) [µg/mL] | MIC [14] [µg/mL] | MIC [15] [µg/mL] | MIC [16] [µg/mL] | MIC ([2]; Staphylococcus aureus (NRS70)) [µg/mL] | zone of inhibition at 4 µg/disc [17] [mm] | MIC [3, 24] [µg/mL] | zone of inhibition at 4 µg/disc [19] [mm] | zone of inhibition at 4 µg/disc [20] [mm] | MIC [13, 25] [µg/mL] | also measured
1 | CN[C@@H]1[C@H](O)[C@H](NC)[C@H]2O[C@]3(O)[C@H](O[C@@H]2[C@H]1O)O[C@H](C)C[C@@]3(O)CNCCc1ccc(C)cc1 [compound 32, 3′-(R)-3′-[(4-Methyl)]Phenethylaminomethyl)]Dihydrospectinomycin Trihydrochloride] | > 200 | > 200 | 12.5 | 3.1 | > 200 | 6.3 | > 200 | 100 | 3.1 to 6.3 | 3.1 to 6.3 | 50 to 100 | ≥ 200 | 100 to 200 | 6.3 |  |  |  |  |  |  | MIC ([2]; Staphylococcus aureus): 12.5 to 25 µg/mL; MIC (Bacillus anthracis): 12.5 µg/mL; MIC [3, 21]: 12.5 µg/mL; MIC ([6]; read-out: MIC TN022): 6.3 µg/mL; MIC ([6]; read-out: MIC TN026): 6.3 µg/mL; MIC [9, 23]: ≥ 200 µg/mL; MIC ([13]; Enterococcus faecalis, ATCC33186, read-out: MIC E.f.): 12.5 µg/mL
2 | CN[C@@H]1[C@H](O)[C@H](NC)[C@H]2O[C@]3(O)[C@H](O[C@@H]2[C@H]1O)O[C@H](C)C[C@@]3(O)CNc1ccc(OC)cc1 [compound 29, 3′-(R)-3′-[(4-methoxy)phenylaminomethyl)]dihydrospectinomycin Trihydrochloride] | > 200 | > 200 | 100 to 200 | > 200 | ≥ 200 | 200 |  | > 200 | 200 | 25 | 50 | > 200 | ≥ 200 | > 200 | > 200 | 7 | 200 | 12 | 0 |  | zone of inhibition at 4 µg/disc [18]: 7 mm
3 | CN[C@@H]1[C@H](O)[C@H](NC)[C@H]2O[C@]3(O)[C@H](O[C@@H]2[C@H]1O)O[C@H](C)C[C@@]3(O)CNc1ccccc1 [compound 30, 3′-(R)-3′-(phenylaminomethyl)dihydrospectinomycin Trihydrochloride] | > 200 | > 200 | 100 to 200 | > 200 | > 200 | ≥ 200 | > 200 | > 200 | ≥ 200 | 12.5 to 25 | 50 | > 200 | 200 | 12.5 to 25 | > 200 | 6 | > 200 | 7 | 0 |  | zone of inhibition at 4 µg/disc [18]: 6 mm
4 | CN[C@@H]1[C@H](O)[C@H](NC)C2O[C@]3(O)C(OC2[C@H]1O)O[C@H](C)C[C@@]3(O)CNCc1ccc2c(c1)OCO2 (some centres unmarked) [compound 36] |  |  | > 200 | 50 (≈ 100 µM) |  |  |  |  | 12.5 (≈ 25.1 µM) | 25 (≈ 50.2 µM) |  |  |  | 25 (≈ 50.2 µM) | > 200 |  | 100 (≈ 201 µM) |  |  | 100 (≈ 201 µM) | 
5 | CN[C@@H]1[C@H](O)[C@H](NC)[C@H]2O[C@]3(O)[C@H](O[C@@H]2[C@H]1O)O[C@H](C)C[C@@]3(O)CNc1ccc(F)cc1 [compound 31, 3′-(R)-3′-[(4-fluoro)phenylaminomethyl)]dihydrospectinomycin Trihydrochloride] | > 200 | > 200 | 200 | 200 | > 200 | 200 | > 200 | > 200 | 200 | 12.5 to 25 | 50 to 100 | > 200 | 100 to 200 | 12.5 to 25 | > 200 | 6 | 200 | 12 | 0 |  | 
6 | CN[C@@H]1[C@H](O)[C@H](NC)C2O[C@]3(O)C(OC2[C@H]1O)O[C@H](C)C[C@@]3(O)CNCCC(C)c1ccccc1 (some centres unmarked) [compound 47] |  |  | > 200 | 6.3 (≈ 12.7 µM) |  |  |  |  | 12.5 (≈ 25.2 µM) | 25 (≈ 50.4 µM) |  |  |  | 25 (≈ 50.4 µM) | 100 (≈ 202 µM) |  | 25 (≈ 50.4 µM) |  |  | 25 (≈ 50.4 µM) | 
7 | CN[C@@H]1[C@H](O)[C@H](NC)C2O[C@]3(O)C(OC2[C@H]1O)O[C@H](C)C[C@@]3(O)CNCc1ccc2ccn(C)c2c1 (some centres unmarked) [compound 43] |  |  | > 200 | 100 (≈ 197 µM) |  |  |  |  | 12.5 (≈ 24.7 µM) | 100 (≈ 197 µM) |  |  |  | 200 (≈ 395 µM) | 12.5 (≈ 24.7 µM) |  | 50 (≈ 98.7 µM) |  |  | 100 (≈ 197 µM) | 
8 | CN[C@@H]1[C@H](O)[C@H](NC)C2O[C@]3(O)C(OC2[C@H]1O)O[C@H](C)C[C@@]3(O)CNCC(C)c1ccccc1 (some centres unmarked) [compound 49] |  |  | > 200 | 100 (≈ 208 µM) |  |  |  |  | 12.5 (≈ 26 µM) | 12.5 (≈ 26 µM) |  |  |  | 12.5 (≈ 26 µM) | 12.5 (≈ 26 µM) |  | 50 (≈ 104 µM) |  |  | 6.25 (≈ 13 µM) | 
9 | CN[C@@H]1[C@H](O)[C@H](NC)[C@H]2O[C@]3(O)[C@H](O[C@@H]2[C@H]1O)O[C@H](C)C[C@@]3(O)CNCCc1ccc(F)cc1 [compound 33, 3′-(R)-3′-(4-FLUOROphenethylaminomethyl)dihydrospectinomycin Trihydrochloride] |  | 200 | 12.5 | 3.1 | > 200 |  | ≥ 200 |  | 3.1 to 6.3 |  | 6.3 |  | 12.5 |  | 25 to 50 |  |  |  |  | 25 | MIC (Bacillus anthracis): 12.5 µg/mL; MIC [3, 21]: 12.5 to 25 µg/mL; MIC ([6]; read-out: MIC TN022): 6.3 µg/mL; MIC ([6]; read-out: MIC TN026): 6.3 µg/mL; MIC [9, 23]: > 200 µg/mL
10 | CN[C@@H]1[C@H](O)[C@H](NC)C2O[C@]3(O)C(OC2[C@H]1O)O[C@H](C)C[C@@]3(O)CNCc1cccc(O)c1 (some centres unmarked) [compound 35] | > 200 | > 200 | 25 (≈ 53.2 µM) | 50 (≈ 106 µM) | > 200 | 25 (≈ 53.2 µM) | > 200 | ≥ 200 | 6.3 (≈ 13.4 µM) | 0.4 to 0.8 (≈ 0.852 to 1.7 µM) | 6.3 to 12.5 (≈ 13.4 to 26.6 µM) | ≥ 200 | 200 (≈ 426 µM) | 0.8 to 1.6 (≈ 1.7 to 3.41 µM) | 25 to 50 (≈ 53.2 to 106 µM) | 15 to 16 | 25 to 50 (≈ 53.2 to 106 µM) | 16 | 30 | 12.5 (≈ 26.6 µM) | zone of inhibition at 4 µg/disc [18]: 18 mm
11 | CN[C@@H]1[C@H](O)[C@H](NC)C2O[C@]3(O)C(OC2[C@H]1O)O[C@H](C)C[C@@]3(O)CNCCCc1ccco1 (some centres unmarked) [compound 38] |  |  | > 200 | 6.3 (≈ 13.4 µM) |  |  |  |  | 6.25 (≈ 13.3 µM) | 25 (≈ 53 µM) |  |  |  | 12.5 (≈ 26.5 µM) | 100 (≈ 212 µM) |  | 50 (≈ 106 µM) |  |  | 50 (≈ 106 µM) | 
